This is an account of results in patent publication US11779586B2, “Compounds comprising tricyclic heterocyclic compounds” (Convalife (Shanghai) Co. Limited, priority 2015, dated 2023).

The subject of one series is p110β/p110γ. As to the kind of experiment: HTRF biochemical assay, class I PI3K isoforms (Reaction Biology Corp.): fold selectivity p110β/p110γ. Particulars: fold form selectivity. The source says: (§1) Fold form selectivity inhibition data against class I PI3K isoforms, as determined using a HTRF biochemical assay conducted at Reaction Biology Corp., is listed below.
A further series concerns p110δ/p110α. As to the kind of experiment: HTRF biochemical assay, class I PI3K isoforms (Reaction Biology Corp.): fold selectivity p110δ/p110α. Particulars: fold form selectivity.
The next series concerns p110β/p110α. As to the kind of experiment: HTRF biochemical assay, class I PI3K isoforms (Reaction Biology Corp.): fold selectivity p110β/p110α. Particulars: fold form selectivity.
Description: as §1

For another series, the system named is p110δ/p110γ. As to the kind of experiment: HTRF biochemical assay, class I PI3K isoforms (Reaction Biology Corp.): fold selectivity p110δ/p110γ. Particulars: fold form selectivity.
Series [1] is described as follows: Rodent pharmacokinetics: oral bioavailability and clearance, plasma PK. Format: in vivo, mouse. The protocol: Formulation: 10% DMSO, 90% Saline Dosing: 10 mg/kg P.O. and 5 mg/kg I.V.
• Species=male mouse; • Strain=Balb/c; • 18 male mice were divided into two groups Group 1 (3 mg/kg; I.V.), Group 2 (10 mg/kg; P.O.) with each group comprising nine mice; • Blood samples (approximately 60 μL) were collected from retro orbital plexus under light isoflurane anesthesia such that the samples were obtained at pre-dose, 0.08, 0.25, 0.5, 1, 2, 4, 8 and 24 hr (I.V.) and pre-dose, 0.25, 0.5, 1, 2, 4, 6, 8 and 24 hr (P.O.); • The blood samples were collected from a set of three mice at each time point in labeled micro centrifuge tube containing K2EDTA as anticoagulant; • Plasma samples were separated by centrifugation of whole blood and stored below −70° C. until bioanalysis; • All samples were processed for analysis by protein precipitation using acetonitrile (ACN) and analyzed with fit for purpose LC/MS/MS method (LLOQ: 2.02 ng/mL); • Pharmacokinetic parameters were calculated using the non-compartmental analysis tool of Phoenix WinNonlin (Version 6.3). Formulation: Animals in Group 1 were administered intravenously with Example B solution formulation in 20% propylene glycol, 50% of PEG 400 and 30% of 20% βCD in water via tail vein at a dose of 3 mg/kg. Animals in Group 2 were administered with oral solution formulation of Example B in 20% propylene glycol, 50% of PEG 400 and 30% of 20% HPβCD in water at a dose of 10 mg/kg; Dosing: 10 mg/kg P.O. and 3 mg/kg I.V.
• Species=male mouse; • Strain=Balb/c; • 18 male mice were divided into two groups Group 1 (3 mg/kg; I.V.), Group 2 (10 mg/kg; P.O.) with each group comprising nine mice; • Blood samples (approximately 60 μL) were collected from retro orbital plexus under light isoflurane anesthesia such that the samples were obtained at pre-dose, 0.08, 0.25, 0.5, 1, 2, 4, 8 and 24 hr (I.V.) and pre-dose, 0.25, 0.5, 1, 2, 4, 6, 8 and 24 hr (P.O.); • The blood samples were collected from a set of three mice at each time point in labeled micro centrifuge tube containing K2EDTA as anticoagulant; • Plasma samples were separated by centrifugation of whole blood and stored below −70° C. until bioanalysis; • All samples were processed for analysis by protein precipitation using acetonitrile (ACN) and analyzed with fit for purpose LC/MS/MS method (LLOQ: 2.47 ng/mL); • Pharmacokinetic parameters were calculated using the non-compartmental analysis tool of Phoenix WinNonlin (Version 6.3). Formulation: Animals in Group 1 were administered intravenously with Example G solution formulation in 5% NMP, 5% solutol HS-15 in 90% HPβCD solution (20% HPβCD in RO water) at 3 mg/kg dose. Animals in Group 2 were administered orally with 10 mg/kg solution formulation of Example G in 5% NMP, 5% solutol HS-15 in 90% HPβCD solution (20% HPβCD in RO water) Dosing: 10 mg/kg P.O. and 3 mg/kg I.V.
• Species=male mouse; • Strain=CD1; • n=3 male mice per time point per route; • Terminal blood sampling at 8 time points (5 min, 10 min, 0.5 hr, 1 hr, 3 hr, 6 hr, 8 hr and, 24 hr); • Collection of plasma, bio-analysis and report of pharmacokinetic parameters. Formulation: 10% DMSO, 90% Saline Dosing: 10 mg/kg P.O. and 5 mg/kg I.V.

The mark [2] stands for this setting: in vivo, iv, male mouse, I.V. (5 mg/kg CD1: Example A, comparative; 3 mg/kg Balb/c: Examples B, G), mesylate salt, read-out: Clearance.

Each structure is given as a SMILES string. Read-outs that look alike come from different tables or passages of the source.

On to `c1cc(-c2nc(N3CCOCC3)c3oc4ncc(CN5CC6CC[C@H](C5)O6)cc4c3n2)c2cc[nH]c2c1` (stereo in doubt) [Example C, 4-(1H-Indol-4-yl)-6-(morpholin-4-yl)-12-{8-oxa-3-azabicyclo[3.2.1]octan-3-ylmethyl}-8-oxa-3,5,10-triazatricyclo[7.4.0.0^2,7]trideca-1(13),2(7),3,5,9,11-hexaene], for which, in the series on p110β/p110γ, the “Fold IC50 p110β/p110γ” value is “** (** = >50×)”. In addition, the “Fold IC50 p110δ/p110α” value with p110δ/p110α is “** (** = >50×)”. Moreover, in the series with p110β/p110α, the “Fold IC50 p110β/p110α” value is “* (* = ≥10× ≥ 50×)”. The “Fold IC50 p110δ/p110γ” value in the series on p110δ/p110γ was “** (** = >50×)”.

In turn, `c1cc(-c2nc(N3CCOCC3)c3oc4ncc(CN5C[C@@H]6C[C@H]5CO6)cc4c3n2)c2cc[nH]c2c1` [Example A, 4-(1H-Indol-4-yl)-6-(morpholin-4-yl)-12-[(1S,4S)-2-oxa-5-azabicyclo[2.2.1]heptan-5-ylmethyl]-8-oxa-3,5,10-triazatricyclo[7.4.0.0^2,7]trideca-1(13),2(7),3,5,9,11-hexaene] had a F in series [1] (male, CD1, mouse, in vivo) of 73.77%. Moreover, the clearance in series [1] (male, mouse, in vivo, iv) is 21 mL/min/kg.

With `c1cc(-c2nc(N3CCOCC3)c3oc4ncc(CN5CCC6(CC5)COC6)cc4c3n2)c2cc[nH]c2c1` [Example B, 4-(1H-Indol-4-yl)-6-(morpholin-4-yl)-12-{2-oxa-7-azaspiro[3.5]nonan-7-ylmethyl}-8-oxa-3,5,10-triazatricyclo[7.4.0.0^2,7]trideca-1(13),2(7),3,5,9,11-hexaene], the “Fold IC50 p110β/p110γ” value with p110β/p110γ was “** (** = >50×)”. In addition, in the series with p110δ/p110α, the “Fold IC50 p110δ/p110α” value is “** (** = >50×)”. For the same molecule, in the series with p110β/p110α, the “Fold IC50 p110β/p110α” value is “** (** = >50×)”. Moreover, the “Fold IC50 p110δ/p110γ” value in the series on p110δ/p110γ is “** (** = >50×)”. Further, the clearance in series [1] (setting [2]) stood at 33 mL/min/kg; in series [1] (male, mouse, in vivo, summary table, mice, mesylate salts, read-out: Clearance) it was 33 mL/min/kg. Besides, the F in series [1] (male Balb/c mouse, PO 10 mg/kg vs IV 3 mg/kg, 20% propylene glycol, 50% PEG 400, 30% of 20% HPβCD in water, mesylate salt) was found to be 74%.

As to `CN1CCC2(CCN(Cc3cnc4oc5c(N6CCOCC6)nc(-c6cccc7[nH]ccc67)nc5c4c3)CC2)C1` [Example D, 4-(1H-Indol-4-yl)-12-({2-methyl-2,8-diazaspiro[4.5]decan-8-yl}methyl)-6-(morpholin-4-yl)-8-oxa-3,5,10-triazatricyclo[7.4.0.0^2,7]trideca-1(13),2(7),3,5,9,11-hexaene], the “Fold IC50 p110β/p110γ” value in the series with p110β/p110γ is “** (** = >50×)”. In addition, the “Fold IC50 p110δ/p110α” value with p110δ/p110α was “** (** = >50×)”. Further, the “Fold IC50 p110β/p110α” value in the series on p110β/p110α is “** (** = >50×)”. Besides, the “Fold IC50 p110δ/p110γ” value with p110δ/p110γ was “** (** = >50×)”.

Turning to `CN1CCC2(CCN(Cc3cnc4oc5c(N6CCOCC6)nc(-c6cccc7[nH]ccc67)nc5c4c3)C2)C1` (stereo not drawn) [Example E, 4-(1H-Indol-4-yl)-12-({7-methyl-2,7-diazaspiro[4.4]nonan-2-yl}methyl)-6-(morpholin-4-yl)-8-oxa-3,5,10-triazatricyclo[7.4.0.0^2,7]trideca-1(13),2(7),3,5,9,11-hexaene], the “Fold IC50 p110β/p110γ” value with p110β/p110γ is “** (** = >50×)”. In addition, the “Fold IC50 p110δ/p110α” value in the series on p110δ/p110α was “** (** = >50×)”. The “Fold IC50 p110β/p110α” value with p110β/p110α is “** (** = >50×)”. Moreover, the “Fold IC50 p110δ/p110γ” value in the series on p110δ/p110γ is “** (** = >50×)”.

Consider `c1cc(-c2nc(N3CCOCC3)c3oc4ncc(CN5CCC56COC6)cc4c3n2)c2cc[nH]c2c1` [Example G, 4-(1H-indol-4-yl)-6-(morpholin-4-yl)-12-{6-oxa-1-azaspiro[3.3]heptan-1-ylmethyl}-8-oxa-3,5,10-triazatricyclo[7.4.0.0^2,7]trideca-1(13),2(7),3,5,9,11-hexaene], for which the “Fold IC50 p110β/p110γ” value in the series with p110β/p110γ was “** (** = >50×)”. The “Fold IC50 p110δ/p110α” value with p110δ/p110α was “** (** = >50×)”. For the same molecule, in the series on p110β/p110α, the “Fold IC50 p110β/p110α” value is “* (* = ≥10× ≥ 50×)”. Also, the “Fold IC50 p110δ/p110γ” value in the series with p110δ/p110γ is “** (** = >50×)”. Moreover, the clearance in series [1] (setting [2]) came to 26 mL/min/kg. The F in series [1] (male Balb/c mouse, PO 10 mg/kg vs IV 3 mg/kg, 5% NMP, 5% solutol HS-15 in 90% HPβCD solution, mesylate salt) is 30%.
